Source: PMC6271274, “Synthesis, Leishmanicidal Activity and Theoretical Evaluations of a Series of Substituted bis-2-Hydroxy-1,4-Naphthoquinones” (Molecules, 2014)
Where “and” joins values, the source holds several entries; their conditions need not be identical. Equal values may be shown once.

Assays:
[1] = test system: L. amazonensis promastigotes; experiment: In vitro activity against L. amazonensis promastigotes; format: cell-based; conditions: Leishmania amazonensis, 48 h; for IC50: maximal concentration 100 μM; for Emax: up to 100 μM, read-out: Maximum Effect
Procedure: (§1) L. braziliensis promastigotes (MHOM/BR/87/BA788) were obtained from Dra. Valéria de Matos Borges at the Gonçalo Moniz Research Center, Fiocruz_BA. L. amazonensis promastigotes (MHOM/BR/77/LTB0016) were obtained from Dr. Eduardo Caio Torres dos Santos at the Oswaldo Cruz Institute-Fiocruz_RJ. The parasites were maintained in vitro in Schneider’s medium supplemented with 10% FBS and 2% human urine at 27 °C in BOD incubator.
(§2) The parasites were maintained in vitro in Schneider’s medium supplemented with 10% FBS and 2% human urine. Novel bis-lawsone analog stock solutions and pentamidine (reference leishmanicidal drug) were prepared in DMSO immediately before use. The cytotoxicities of the bis-lawsone analogs and pentamidine against the promastigotes were determined. Stationary phase L. braziliensis and L. amazonensis promastigotes were plated in 96-well vessels (Nunc, Roskilde, Denmark) at 1 × 10^5 cells per well in Schneider’s medium supplemented with 10% FBS and 2% human urine. Each compound solution was added at increasing concentrations (0.1–100 mg to the extract and its phases or 0.1–100 µΜ to the isolates and pentamidine). The cells were also cultured in a medium free of compounds, a vehicle (basal growth control) or with DMSO 0.1% (vehicle control). After 48 h, the extracellular load for L. braziliensis and L. amazonensis promastigotes was estimated by counting the promastigotes in Schneider’s medium using a CELM automatic cell counter (model CC530, Barueri, Brazil). The data obtained from experiments were expressed as the mean ± S.E.M., and the significant differences between the treated and vehicle groups were evaluated using ANOVA and Dunnett post-hoc tests.

[2] = test system: L. braziliensis promastigotes; experiment: In vitro activity against L. braziliensis promastigotes; format: cell-based, Leishmania braziliensis; conditions: for IC50 / Emax: Leishmania braziliensis, L. braziliensis promastigotes, 48 h; for IC50: maximal concentration 100 μM; for Emax: NT = no significant inhibitory activity for the parasite to 100 M (printed) compared to DMSO group, read-out: Maximum Effect; for Selectivity: IC50 to L. braziliensis lower than IC50 to L. amazonensis: ratio of promastigote IC50 values
Procedure: as §1, §2

[3] = Cytotoxicity against host cells (MTT assay); format: cell-based; conditions: mouse, J774 macrophage cell line; J774 macrophages, MTT assay, 48 h, maximal concentration 100 μM; read-out: LC50
Procedure: (§3) The adherent-phenotype macrophage line was cultured in Dulbecco’s Modified Eagle’s medium (DMEM, Sigma, Dublin, Ireland) supplemented with 10% FBS at 37 °C, 95% humidity and 5% CO2.
(§4) To evaluate the cytotoxicity activity against the J774 cell line, the host cells were plated in 96-well vessels at 2 × 10^5 cells per well in a complete culture medium with 10% FBS at 37 °C. After 1 h, the wells were washed with HBSS to remove non-adherent cells, leaving approximately 1 × 10^5 adherent macrophages. The cells were cultured in DMEM complete medium supplemented with 10% FBS. The compounds and pentamidine were added at serial concentrations (0.1–100 µM). The cells were also cultured in media free from compounds, a vehicle (basal growth control) or media with DMSO 0.1% (vehicle control). The positive control (dead cells) was obtained through cellular lyses with 1% of Triton X-100 in DMEM complete medium. After 48 h, the cytotoxicity was evaluated using the MTT assay. The data obtained from the experiments were expressed as the mean ± S.E.M., and the significant differences between the treated and vehicle groups were evaluated using ANOVA and Dunnett post-hoc tests.

J774 cell line = experiment: Cytotoxicity against host cells (MTT assay); format: cell-based; conditions: for Maximum Cytotoxicity: J774 macrophages, MTT assay, 48 h, NT = no significant lethal activity to cell until 100 M (printed) compared to DMSO group; for Effect on J774 cell line viability / cytotoxicity to the host cells (in words): 48 h of incubation, at 100 µM
Procedure: as §3, §4

Leishmania = test system: Leishmania; design: method as in PMID 15654435; conditions: cited from earlier work
L. amazonensis [4] = experiment: In vivo activity against Leishmania amazonensis in infected BALB/c mice; conditions: 30 μmol/kg/day × 28 days, i.p.; for Parasite load in the draining lymph node / Parasite load in the infected ear: limiting-dilution assay
Excerpt: (§5) This study was approved (protocol no. 2013.02) by the Ethics Committee for Animal Experimentation of the Federal University of Alagoas (Brazil). All animals received humane care in compliance with the “Principles of laboratory animal care” formulated by the National Society for Medical Research and the “Guide for the care and use of laboratory animals” prepared by the National Academy of Sciences (Washington, DC, USA). Next, 1 × 10^5 stationary promastigotes (5 days of culture in Schneider’s medium) of L. amazonensis (MHOM/BR/77/LTB0016) were subcutaneously inoculated into the right ear dermis of 6-week-old female BALB/c mice weighing ca. 20 g. and were later intraperitoneally treated with 3a or glucantime at 30 μmol/kg × 28 days. The lesion size was measured using a paquimeter. The parasite loads of infected ears and draining lymph nodes were determined using a quantitative limiting-dilution assay. Complex toxicity was also evaluated through biochemistry dosages in plasma. The experimental data were expressed as the mean ± S.E.M., and the significant differences between the treated and vehicle groups were evaluated using ANOVA and Dunnett post-hoc tests.

promastigote forms = conditions: stated as reason for choice of reference drug; no reference given; cited from earlier work
[5] = In vivo toxicity (spleen weight, plasma biochemistry) in infected BALB/c mice; conditions: BALB/c mice infected with L. amazonensis, 30 μmol/kg/day × 28 days, i.p.
Excerpt: as §5

L. braziliensis = test system: L. braziliensis; design: method as in PMID 15654435; conditions: promastigotes; cited from earlier work
L. amazonensis [6] = test system: L. amazonensis; design: method as in PMID 15654435; conditions: promastigotes; cited from earlier work

Compound	IC50 [1] [µM]	Emax [1] [%]	IC50 [2] [µM]	Emax [2] [%]	CC50 at 48 h [3] [µM]	further results
N=C(N)c1ccc(OCCCCCOc2ccc(C(=N)N)cc2)cc1 [Pentamidine, reference compound]	2.3 ± 0.8	85.4 ± 0.4	0.8 ± 0.06	91 ± 0.1	73 ± 6	Maximum Cytotoxicity (J774 cell line): 78.0 ± 3.8 %; Maximum Cytotoxicity (J774 cell line; listed as pentamidine): 78.0% ± 3.8%
O=C1C(O)=C(C(C2=C(O)C(=O)c3ccccc3C2=O)c2ccc(F)cc2)C(=O)c2ccccc21 [Compound 3h, 3,3'-(4-Fluorophenylmethylene)-bis[2-hydroxy-1,4-naphthalenedione]]	0.6 ± 0.2	51 ± 5.5	0.8 ± 0.03	88.7 ± 0.3	> 100	Effect on J774 cell line viability / cytotoxicity to the host cells (in words) (J774 cell line): without cytotoxicity
CC(C)=CCC1=C(O)C(=O)c2ccccc2C1=O [Lapachol]						Antileishmanial activity (in words) (Leishmania): significant activity
O=C1C(O)=C(C(C2=C(O)C(=O)c3ccccc3C2=O)c2ccc(O)cc2)C(=O)c2ccccc21 [Compound 3f, 3,3'-(4-Hydroxyphenylmethylene)-bis[2-hydroxy-1,4-naphthalenedione]]	68.7 ± 15.1	55.4 ± 4.7	38.7 ± 2	91.7 ± 0.3	> 100	
O=C1C(O)=C(C(C2=C(O)C(=O)c3ccccc3C2=O)c2ccc([N+](=O)[O-])cc2)C(=O)c2ccccc21 [Compound 3g, 3,3'-(4-Nitrophenylmethylene)-bis[2-hydroxy-1,4-naphthalenedione]]	7.7 ± 1.2	55.6 ± 3.2	2.8 ± 0.1	91.7 ± 1.3	> 100	
CCC(CC)C(C1=C(O)C(=O)c2ccccc2C1=O)C1=C(O)C(=O)c2ccccc2C1=O [Compound 3c, 3,3'-(2-Ethylbutylidene)-bis[2-hydroxy-1,4-naphthalenedione]]	0.4 ± 0.1	75.3 ± 1.3	34.7 ± 4.3	90.4 ± 0.7	67.4 ± 2.1	Maximum Cytotoxicity (J774 cell line): 71.7% ± 3.8% and 71.7 ± 3.8 %
COc1ccc(C(C2=C(O)C(=O)c3ccccc3C2=O)C2=C(O)C(=O)c3ccccc3C2=O)cc1 [Compound 3e, 3,3'-(4-Methoxyphenylmethylene)-bis[2-hydroxy-1,4-naphthalenedione]]	> 100	44.6 ± 2.4	0.9 ± 0.04	61.6 ± 7.5	> 100	Selectivity: IC50 to L. braziliensis lower than IC50 to L. amazonensis [2]: 10 times; Effect on J774 cell line viability / cytotoxicity to the host cells (in words) (J774 cell line): without cytotoxicity
O=C1C(O)=C(C(C2=C(O)C(=O)c3ccccc3C2=O)c2ccccc2)C(=O)c2ccccc21 [Compound 3d, 3,3'-(Phenylmethylene)-bis[2-hydroxy-1,4-naphthalenedione]]	0.3 ± 0.1	85 ± 3.8	> 100		> 100	Activity against promastigote forms of L. braziliensis (in words) ([2]; until 100 µM): did not present activity
meglumine antimoniate [glucantime, reference compound]						Parasite load in the draining lymph node (L. amazonensis [4]): did not decrease; Parasite load in the infected ear (L. amazonensis [4]): did not decrease; Activity against promastigote forms (in words) (promastigote forms): not active
isolapachol						Antileishmanial activity (in words) (Leishmania): significant activity
CC(C)CCC1=C(O)C(=O)c2ccccc2C1=O [dihydrolapachol]						Antileishmanial activity (in words) (Leishmania): significant activity
O=C1C(O)=C(CC2=C(O)C(=O)c3ccccc3C2=O)C(=O)c2ccccc21 [Compound 3a, 3,3'-(Methylene)-bis[2-hydroxy-1,4-naphthalenedione]]	71 ± 1.1	72.8 ± 1	0.9 ± 0.08	88.4 ± 0.9	> 100	Parasite load in the draining lymph node (L. amazonensis [4]): did not decrease; Parasite load in the infected ear (L. amazonensis [4]): did not decrease; Lesion size for the infected ear (L. amazonensis [4]; third week after the treatment began): decreased; Selectivity: IC50 to L. braziliensis lower than IC50 to L. amazonensis [2]: 10 times; Effect on J774 cell line viability / cytotoxicity to the host cells (in words) (J774 cell line): without cytotoxicity; Alanine aminotransferase (ALT) in plasma [5]: nor altered; Aspartate aminotransferase (AST) in plasma [5]: nor altered; Spleen weight ([5]; last day of treatment): neither induced a change
CC(=O)OC1=C(C=CC(C)C)C(=O)c2ccccc2C1=O [isolapachol acetate]						IC50 (L. braziliensis): 3.4 µg/mL; IC50 (L. amazonensis [6]): 1.6 µg/mL
CCCCCC(C1=C(O)C(=O)c2ccccc2C1=O)C1=C(O)C(=O)c2ccccc2C1=O [Compound 3b, 3,3'-(Hexylidene)-bis[2-hydroxy-1,4-naphthalenedione]]	5.2 ± 0.1	57.2 ± 3.8	5.2 ± 0.1	93 ± 0.1	> 100	Effect on J774 cell line viability / cytotoxicity to the host cells (in words) (J774 cell line): without cytotoxicity
